Experimental data published in US20130116263A1, “PAK INHIBITORS FOR THE TREATMENT OF CELL PROLIFERATIVE DISORDERS” (AFRAXIS, INC., priority 2011, published 2013).
pIC50: −log10 of the molar value. Like-named read-outs stand apart in the source and are kept apart here.

What was measured:
PAK4 = PAK4 (Homo sapiens, UniProt O96013); assay: Additional in vitro PAK-4 inhibition assay at ATP 10 uM and 1 mM; format: biochemical; settings: 10 μM ATP; read-out: PAK4 IC50 (10 μM ATP)
Procedure: (§1) Similar in vitro PAK1 and PAK-4 inhibition assays are conducted in compounds for the treatment of cancer, but under ATP concentrations of 10 uM and 1 mM.

PAK1 = PAK1 (Homo sapiens, UniProt Q13153); assay: Additional in vitro PAK1 inhibition assay at ATP 10 uM and 1 mM; format: biochemical
PAK1, sequence (Q13153 whole entry): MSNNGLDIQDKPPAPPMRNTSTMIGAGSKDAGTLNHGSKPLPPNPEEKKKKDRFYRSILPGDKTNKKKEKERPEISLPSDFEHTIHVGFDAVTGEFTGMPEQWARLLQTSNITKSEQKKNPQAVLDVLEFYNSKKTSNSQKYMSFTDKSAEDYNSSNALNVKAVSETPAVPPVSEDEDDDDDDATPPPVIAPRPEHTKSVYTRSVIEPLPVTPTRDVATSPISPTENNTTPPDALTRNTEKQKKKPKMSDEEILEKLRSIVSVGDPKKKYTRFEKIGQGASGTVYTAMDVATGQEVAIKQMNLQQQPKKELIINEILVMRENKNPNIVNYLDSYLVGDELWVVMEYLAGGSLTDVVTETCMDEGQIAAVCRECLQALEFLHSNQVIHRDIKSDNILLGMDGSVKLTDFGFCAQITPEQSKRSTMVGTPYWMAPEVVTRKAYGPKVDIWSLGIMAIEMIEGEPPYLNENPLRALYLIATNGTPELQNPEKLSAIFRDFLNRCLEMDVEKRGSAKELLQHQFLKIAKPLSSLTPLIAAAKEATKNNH
Procedure: as §1

[1] = 10 μM ATP, read-out: PAK1 IC50 (10 μM ATP)
[2] = 1 mM ATP, read-out: PAK1 IC50 (1 mM ATP)

PAK4, sequence (O96013 whole entry): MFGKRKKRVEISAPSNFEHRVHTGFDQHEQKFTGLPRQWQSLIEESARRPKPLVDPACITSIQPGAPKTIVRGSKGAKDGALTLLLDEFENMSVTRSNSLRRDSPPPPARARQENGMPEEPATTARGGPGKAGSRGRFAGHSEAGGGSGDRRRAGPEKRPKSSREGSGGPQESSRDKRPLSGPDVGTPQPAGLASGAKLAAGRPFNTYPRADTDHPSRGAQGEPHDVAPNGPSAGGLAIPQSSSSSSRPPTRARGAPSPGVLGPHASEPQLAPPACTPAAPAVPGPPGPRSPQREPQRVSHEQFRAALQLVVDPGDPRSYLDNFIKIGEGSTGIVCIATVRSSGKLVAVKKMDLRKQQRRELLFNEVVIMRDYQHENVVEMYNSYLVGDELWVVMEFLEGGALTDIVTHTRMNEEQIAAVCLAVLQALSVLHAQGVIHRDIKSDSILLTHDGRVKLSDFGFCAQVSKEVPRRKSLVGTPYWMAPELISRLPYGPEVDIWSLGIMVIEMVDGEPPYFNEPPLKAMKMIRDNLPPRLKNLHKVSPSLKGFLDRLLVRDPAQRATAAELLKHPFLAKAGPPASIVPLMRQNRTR

SMILES	pIC50 (PAK4)	pIC50 (PAK1; [1])	pIC50 (PAK1; [2])
Cc1nc(-c2ccc(-c3cc4cnc(NC5CCNC(=O)C5)nc4n(Cc4c(F)cccc4C(F)(F)F)c3=O)c(Cl)c2)no1 (stereo not drawn) [drawing 354]	≤ 5.30	> 7.30	5.30 to 6.30
CCn1c(=O)c(-c2ccc(-c3noc(C)n3)cc2Cl)cc2cnc(NC3CCCC3)nc21	5.30 to 6.30	5.30 to 6.30	≤ 5.30
CCN1CCC(Cn2c(=O)c(-c3ccc(-c4noc(C)n4)cc3Cl)cc3cnc(NC4CCOCC4)nc32)CC1	≤ 5.30	6.30 to 7.30	≤ 5.30
Cc1nc(-c2ccc(-c3cc4cnc(NC5CCOCC5)nc4n(C4CCN(C(=O)CN)CC4)c3=O)c(Cl)c2)no1	≤ 5.30	6.30 to 7.30	≤ 5.30
Cc1nc(-c2ccc(-c3cc4cnc(NC5CCOCC5)nc4n(C4CCN(CCN)C4)c3=O)c(Cl)c2)no1 (stereo not drawn)	≤ 5.30	6.30 to 7.30	≤ 5.30
CCn1c(=O)c(-c2ccc(-c3noc(C)n3)cc2Cl)cc2cnc(NC3CCNC3=O)nc21 (stereo not drawn)	≤ 5.30	≤ 5.30	≤ 5.30
Cc1nc(-c2ccc(-c3cc4cnc(NC5CCOCC5)nc4n(CC(=O)NCCCN)c3=O)c(Cl)c2)no1	≤ 5.30	> 7.30	5.30 to 6.30
CCn1c(=O)c(-c2ccc(-c3noc(C)n3)cc2Cl)cc2cnc(NCc3cccnc3)nc21	≤ 5.30	5.30 to 6.30	≤ 5.30
CCn1c(=O)c(-c2ccc(-c3noc(C)n3)cc2Cl)cc2cnc(NCC(C)(C)O)nc21	≤ 5.30	5.30 to 6.30	≤ 5.30
Cc1nc(-c2ccc(-c3cc4cnc(NC5CCOCC5)nc4n(CC(=O)NC4CCNC4)c3=O)c(Cl)c2)no1 (stereo not drawn) [drawing 346]	≤ 5.30	6.30 to 7.30	≤ 5.30
Cc1nc(-c2ccc(-c3cc4cnc(NC5CCOCC5)nc4n(Cc4ccc(CCN)cc4)c3=O)c(Cl)c2)no1 [drawing 338]	≤ 5.30	> 7.30	5.30 to 6.30
CCn1c(=O)c(-c2ccc(-c3noc(C)n3)cc2Cl)cc2cnc(NC3COC4(CCCC4)C3)nc21 (stereo not drawn)	5.30 to 6.30	5.30 to 6.30	≤ 5.30
Cc1nc(-c2ccc(-c3cc4cnc(NC5CCOCC5)nc4n(-c4ccccc4)c3=O)c(Cl)c2)no1	≤ 5.30	6.30 to 7.30	≤ 5.30
Cc1nc(-c2ccc(-c3cc4cnc(NC5CCOCC5)nc4n(CC4CCCN(C)C4)c3=O)c(Cl)c2)no1 (stereo not drawn)	≤ 5.30	6.30 to 7.30	≤ 5.30
Cc1nc(-c2ccc(-c3cc4cnc(NC5CCOCC5)nc4n(CC4CCNCC4)c3=O)c(Cl)c2)no1 [drawing 340]	≤ 5.30	> 7.30	5.30 to 6.30
CCCCNc1ncc2cc(-c3ccc(-c4noc(C)n4)cc3Cl)c(=O)n(CC)c2n1	≤ 5.30	5.30 to 6.30	≤ 5.30
CCn1c(=O)c(-c2ccc(-c3noc(C)n3)cc2Cl)cc2cnc(NC3CCN(C)C3=O)nc21 (stereo not drawn)	≤ 5.30	≤ 5.30	≤ 5.30
CCn1c(=O)c(-c2ccc(-c3noc(C)n3)cc2Cl)cc2cnc(NCc3ccccc3)nc21	≤ 5.30	5.30 to 6.30	≤ 5.30
CCn1c(=O)c(-c2ccc(-c3noc(C)n3)cc2Cl)cc2cnc(N[C@@H]3C[C@H]3C)nc21	> 7.30	6.30 to 7.30	> 7.30
Cc1nc(-c2ccc(-c3cc4cnc(NC5CCOCC5)nc4n(Cc4ccccc4)c3=O)c(Cl)c2)no1	≤ 5.30	5.30 to 6.30	≤ 5.30
Cc1nc(-c2ccc(-c3cc4cnc(NC5CCOCC5)nc4n(CC(=O)NCc4ccncc4)c3=O)c(Cl)c2)no1 [drawing 348]	≤ 5.30	6.30 to 7.30	≤ 5.30
Cc1nc(-c2ccc(-c3cc4cnc(NC5CCOCC5)nc4n(C4CC4)c3=O)c(Cl)c2)no1	≤ 5.30	6.30 to 7.30	≤ 5.30
CCn1c(=O)c(-c2ccc(-c3noc(C)n3)cc2Cl)cc2cnc(N[C@H]3COC[C@H]3O)nc21	≤ 5.30	5.30 to 6.30	≤ 5.30

SMILES	pIC50 (PAK4)	pIC50 (PAK1; [1])	pIC50 (PAK1; [2])
CCn1c(=O)c(-c2ccc(-c3noc(C)n3)cc2Cl)cc2cnc(NCC(=O)N(C)C)nc21	6.30 to 7.30	≤ 5.30	≤ 5.30
Cc1nc(-c2ccc(-c3cc4cnc(NC5CCOCC5)nc4n(CC(=O)N4CCCC(CN)C4)c3=O)c(Cl)c2)no1 (stereo not drawn)	≤ 5.30	6.30 to 7.30	≤ 5.30
Cc1nc(-c2ccc(-c3cc4cnc(NC5CCOCC5)nc4n(Cc4ccc5c(c4)CNC5)c3=O)c(Cl)c2)no1	≤ 5.30	6.30 to 7.30	≤ 5.30
CCn1c(=O)c(-c2ccc(-c3noc(C)n3)cc2Cl)cc2cnc(NC3CC3)nc21	≤ 5.30	6.30 to 7.30	≤ 5.30
Cc1nc(-c2ccc(-c3cc4cnc(NC5CCOCC5)nc4n(CC(=O)NC4CCCNC4)c3=O)c(Cl)c2)no1 (stereo not drawn)	≤ 5.30	6.30 to 7.30	≤ 5.30
CCn1c(=O)c(-c2ccc(-c3noc(C)n3)cc2Cl)cc2cnc(NN3CCOCC3)nc21	≤ 5.30	5.30 to 6.30	≤ 5.30
CCn1c(=O)c(-c2ccc(-c3noc(C)n3)cc2Cl)cc2cnc(NCC3CCCO3)nc21 (stereo not drawn)	≤ 5.30	5.30 to 6.30	≤ 5.30
CCn1c(=O)c(-c2ccc(-c3noc(C)n3)cc2Cl)cc2cnc(NCC3CCOC3)nc21 (stereo not drawn)	≤ 5.30	5.30 to 6.30	≤ 5.30
Cc1nc(-c2ccc(-c3cc4cnc(NC5CCOCC5)nc4n(C4CCOC(C)(C)C4)c3=O)c(Cl)c2)no1 (stereo not drawn)	≤ 5.30	> 7.30	5.30 to 6.30
CCn1c(=O)c(-c2ccc(-c3noc(C)n3)cc2Cl)cc2cnc(NC3(C)CC3)nc21	≤ 5.30	5.30 to 6.30	≤ 5.30
Cc1nc(-c2ccc(-c3cc4cnc(NC5CCOCC5)nc4n(CCC4CCNCC4)c3=O)c(Cl)c2)no1 [drawing 343]	≤ 5.30	> 7.30	5.30 to 6.30
CCn1c(=O)c(-c2ccc(-c3noc(C)n3)cc2Cl)cc2cnc(NCc3ccccn3)nc21	≤ 5.30	5.30 to 6.30	≤ 5.30
CCn1c(=O)c(-c2ccc(-c3noc(C)n3)cc2Cl)cc2cnc(NC3CCOC(C)(C)C3)nc21 (stereo not drawn)	≤ 5.30	6.30 to 7.30	≤ 5.30
CCO[C@H]1COC[C@@H]1Nc1ncc2cc(-c3ccc(-c4noc(C)n4)cc3Cl)c(=O)n(CC)c2n1	≤ 5.30	5.30 to 6.30	≤ 5.30
CCn1c(=O)c(-c2ccc(-c3noc(C)n3)cc2Cl)cc2cnc(NC3COC3)nc21	≤ 5.30	6.30 to 7.30	≤ 5.30
Cc1nc(-c2ccc(-c3cc4cnc(NC5CC5)nc4n(Cc4cccc(CN)c4)c3=O)c(Cl)c2)no1	≤ 5.30	> 7.30	5.30 to 6.30
Cc1nc(-c2ccc(-c3cc4cnc(NC5CCOCC5)nc4n(Cc4cccc(CN)c4)c3=O)c(Cl)c2)no1 [drawing 342]	≤ 5.30	> 7.30	6.30 to 7.30
Cc1nc(-c2ccc(-c3cc4cnc(NC5CCOCC5)nc4n(CC4CCCNC4)c3=O)c(Cl)c2)no1 (stereo not drawn)	≤ 5.30	6.30 to 7.30	≤ 5.30
CCn1c(=O)c(-c2ccc(-c3noc(C)n3)cc2Cl)cc2cnc(NC(C)C)nc21	≤ 5.30	5.30 to 6.30	≤ 5.30
Cc1nc(-c2ccc(-c3cc4cnc(NC5CCOCC5)nc4n(C4CCN(C5CCNCC5)C4)c3=O)c(Cl)c2)no1 (stereo not drawn)	≤ 5.30	6.30 to 7.30	≤ 5.30
Cc1nc(-c2ccc(-c3cc4cnc(NC5CCOCC5)nc4n(CC(=O)N4CCC(N)CC4)c3=O)c(Cl)c2)no1	≤ 5.30	6.30 to 7.30	≤ 5.30
Cc1nc(-c2ccc(-c3cc4cnc(NC5CCOCC5)nc4n(C4CCOCC4)c3=O)c(Cl)c2)no1	≤ 5.30	6.30 to 7.30	≤ 5.30
CCn1c(=O)c(-c2ccc(-c3noc(C)n3)cc2Cl)cc2cnc(NCCCOC)nc21	≤ 5.30	5.30 to 6.30	≤ 5.30
